From PubChem BioAssay AID330 (DTP/NCI, 2004)
Where “and” joins values, the source holds several entries; their conditions need not be identical. Identical values can stand only once. Inconclusive results and toxic doses are left out.

System: P388 leukemia ip, CD2F1 mice, survival T/C
Experiment: NCI In Vivo Anticancer Drug Screen. Data for tumor model P388 Leukemia (intraperitoneal) in CD2F1 (CDF1) mice
Settings: endpoint: median survival time, higher = longer survival
Outline: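 Mice carrying the transplanted tumor received test compound or vehicle. Survival was recorded in each group, and the value is the treated-group measurement divided by that of the vehicle-treated control group.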

[1] = dose: 60.0 mg/kg/injection, schedule: Q01DX005 (ip), vehicle: saline with Tween-80
[2] = dose: 120.0 mg/kg/injection, schedule: Q01DX005 (ip), vehicle: saline with Tween-80
[3] = dose: 240.0 mg/kg/injection, schedule: Q01DX005 (ip), vehicle: saline with Tween-80
[4] = dose: 50.0 mg/kg/injection, schedule: Q01DX009 (ip), vehicle: saline with Tween-80
[5] = dose: 100.0 mg/kg/injection, schedule: Q01DX009 (ip), vehicle: saline with Tween-80
[6] = dose: 200.0 mg/kg/injection, schedule: Q01DX009 (ip), vehicle: saline with Tween-80
[7] = dose: 50.0 mg/kg/injection, schedule: Q01DX005 (ip), vehicle: Klucel (hydroxypropylcellulose) (HPC)
[8] = dose: 100.0 mg/kg/injection, schedule: Q01DX005 (ip), vehicle: Klucel (hydroxypropylcellulose) (HPC)
[9] = dose: 200.0 mg/kg/injection, schedule: Q01DX005 (ip), vehicle: Klucel (hydroxypropylcellulose) (HPC)
[10] = dose: 50.0 mg/kg/injection, schedule: Q01DX005 (ip), vehicle: saline with Tween-80
[11] = dose: 100.0 mg/kg/injection, schedule: Q01DX005 (ip), vehicle: saline with Tween-80
[12] = dose: 200.0 mg/kg/injection, schedule: Q01DX005 (ip), vehicle: saline with Tween-80
[13] = dose: 2.5 mg/kg/injection, schedule: Q01DX005 (ip), vehicle: saline + alcohol
[14] = dose: 5.0 mg/kg/injection, schedule: Q01DX005 (ip), vehicle: saline + alcohol
[15] = dose: 10.0 mg/kg/injection, schedule: Q01DX005 (ip), vehicle: saline + alcohol
[16] = dose: 60.0 mg/kg/injection, schedule: Q01DX005 (ip), vehicle: Klucel (hydroxypropylcellulose) (HPC)
[17] = dose: 120.0 mg/kg/injection, schedule: Q01DX005 (ip), vehicle: Klucel (hydroxypropylcellulose) (HPC)
[18] = dose: 240.0 mg/kg/injection, schedule: Q01DX005 (ip), vehicle: Klucel (hydroxypropylcellulose) (HPC)
[19] = dose: 100.0 mg/kg/injection, schedule: Q04DX003 (ip), vehicle: saline with Tween-80
[20] = dose: 25.0 mg/kg/injection, schedule: Q01DX009 (ip), vehicle: Klucel (hydroxypropylcellulose) (HPC)
[21] = dose: 50.0 mg/kg/injection, schedule: Q01DX009 (ip), vehicle: Klucel (hydroxypropylcellulose) (HPC)
[22] = dose: 100.0 mg/kg/injection, schedule: Q01DX009 (ip), vehicle: Klucel (hydroxypropylcellulose) (HPC)
[23] = dose: 200.0 mg/kg/injection, schedule: Q01DX009 (ip), vehicle: Klucel (hydroxypropylcellulose) (HPC)

COc1cc([C@H]2c3c(cc(OC)c(OC)c3OC)CC3COC(=O)[C@@H]32)cc(Br)c1O (some centres undefined)
T/C [1]: 101 % of control
T/C [2]: 95 % of control
T/C [3]: 98 % of control

O=[N+]([O-])c1ccc(C(Cl)Cc2ccc(Cl)cc2)cc1 (centres undefined)
T/C [1]: 102 % of control
T/C [2]: 90 % of control
T/C [3]: 94 % of control

Cc1cc(C)c(C2C(=O)c3ccccc3C2=O)c(C)c1
T/C (dose: 25.0 mg/kg/injection, schedule: Q01DX009 (ip), vehicle: saline with Tween-80): 111 % of control
T/C [4]: 109 % of control
T/C [5]: 116 % of control
T/C [6]: 110 % of control

CCOC(=O)c1cc(N)c(C(=O)OCC)cc1N
T/C [4]: 97 % of control
T/C [5]: 86 % of control and 96 % of control
T/C [6]: 96 % of control and 97 % of control
T/C (dose: 400.0 mg/kg/injection, schedule: Q01DX009 (ip), vehicle: saline with Tween-80): 92 % of control and 96 % of control

O=C(O)/C=N/NS(=O)(=O)c1ccc2ccccc2c1
T/C (dose: 50.0 mg/kg/injection, schedule: Q01DX009 (ip), vehicle: other): 161 % of control and 164 % of control
T/C (dose: 200.0 mg/kg/injection, schedule: Q01DX009 (ip), vehicle: other): 153 % of control

CCNCCNc1cc(O)c2c(c1O)C(=O)c1ccccc1C2=O
T/C (dose: 25.0 mg/kg/injection, schedule: Q01DX005 (ip), vehicle: Klucel (hydroxypropylcellulose) (HPC)): 101 % of control and 102 % of control
T/C [7]: 110 % of control and 111 % of control
T/C [8]: 111 % of control and 112 % of control
T/C [9]: 122 % of control

CCOC(=O)C(C(C)O)C1CC=CC1 (centres undefined)
T/C [10]: 108 % of control
T/C [11]: 100 % of control
T/C [12]: 104 % of control

CC1(C)CCCC2(C)C1CCC13OC1(C=O)C(C=O)=CCC23 (centres undefined)
T/C (dose: 1.25 mg/kg/injection, schedule: Q01DX005 (ip), vehicle: saline + alcohol): 99 % of control
T/C [13]: 98 % of control
T/C [14]: 99 % of control
T/C [15]: 99 % of control
T/C (dose: 20.0 mg/kg/injection, schedule: Q01DX005 (ip), vehicle: saline + alcohol): 104 % of control

COC(=O)c1c2c(cc3nc4ccccc4nc13)OCO2
T/C [1]: 96 % of control
T/C [2]: 97 % of control
T/C [3]: 90 % of control

C(=NC12CC3CC(CC(C3)C1)C2)C12CC3CC(CC(C3)C1)C2
T/C [4]: 99 % of control
T/C [5]: 102 % of control
T/C [6]: 96 % of control

O=c1[nH]nc(-c2ccc3c(c2)OCO3)o1
T/C (dose: 32.5 mg/kg/injection, schedule: Q01DX009 (ip), vehicle: Klucel (hydroxypropylcellulose) (HPC)): 105 % of control
T/C (dose: 65.0 mg/kg/injection, schedule: Q01DX009 (ip), vehicle: Klucel (hydroxypropylcellulose) (HPC)): 95 % of control
T/C (dose: 130.0 mg/kg/injection, schedule: Q01DX009 (ip), vehicle: Klucel (hydroxypropylcellulose) (HPC)): 95 % of control

O=C1CCC(=O)N1CN(Cc1ccccc1)Cc1ccccc1
T/C [16]: 100 % of control
T/C [17]: 97 % of control
T/C [18]: 103 % of control

CCCCCCCCCCCCCCCCCC(=O)CC(=O)C(F)(F)F
T/C (dose: 50.0 mg/kg/injection, schedule: Q01DX009 (ip), vehicle: saline): 100 % of control
T/C (dose: 100.0 mg/kg/injection, schedule: Q01DX009 (ip), vehicle: saline): 99 % of control
T/C (dose: 200.0 mg/kg/injection, schedule: Q01DX009 (ip), vehicle: saline): 99 % of control

CCCCCOc1ccc(C(=O)Oc2ccc(N=Nc3nccs3)cc2)cc1
T/C [10]: 98 % of control
T/C [11]: 101 % of control
T/C [12]: 96 % of control

COc1cc(C=Nc2cccc(C(=O)O)c2)ccc1N(CCCl)CCCl
T/C (dose: 25.0 mg/kg/injection, schedule: Q01DX009 (ip), vehicle: saline): 122 % of control
T/C (dose: 50.0 mg/kg/injection, schedule: Q04DX003 (ip), vehicle: saline with Tween-80): 150 % of control
T/C (dose: 66.0 mg/kg/injection, schedule: Q04DX003 (ip), vehicle: saline with Tween-80): 272 % of control
T/C [19]: 181 % of control

COc1cccc2c1C(=O)c1c(O)c3c(c(O)c1C2=O)CC(O)(C(C)=O)CC3OC1CC(NC(=O)C(CCCCN)NC(=O)C2CCCN2)C(O)C(C)O1 (centres undefined)
T/C (dose: 2.5 mg/kg/injection, schedule: Q04DX003 (ip), vehicle: water): 93 % of control
T/C (dose: 5.0 mg/kg/injection, schedule: Q04DX003 (ip), vehicle: water): 98 % of control
T/C (dose: 10.0 mg/kg/injection, schedule: Q04DX003 (ip), vehicle: water): 99 % of control and 109 % of control
T/C (dose: 20.0 mg/kg/injection, schedule: Q04DX003 (ip), vehicle: water): 110 % of control and 118 % of control
T/C (dose: 40.0 mg/kg/injection, schedule: Q04DX003 (ip), vehicle: water): 121 % of control and 123 % of control
T/C (dose: 80.0 mg/kg/injection, schedule: Q04DX003 (ip), vehicle: water): 166 % of control

O=C(Nc1cccc2c1C(=O)c1c(NC(=O)c3ccccc3)ccc(Nc3cccc4c3C(=O)c3ccccc3C4=O)c1C2=O)c1ccccc1
T/C [10]: 100 % of control
T/C [11]: 103 % of control
T/C [12]: 103 % of control

Cc1cc(NC(=S)Nc2ccccc2)c(NC(=S)Nc2ccccc2)cc1C
T/C [20]: 97 % of control
T/C [21]: 100 % of control
T/C [22]: 98 % of control
T/C [23]: 92 % of control
T/C (dose: 400.0 mg/kg/injection, schedule: Q01DX009 (ip), vehicle: Klucel (hydroxypropylcellulose) (HPC)): 106 % of control

NC(=O)c1cc([N+](=O)[O-])cnc1Sc1ncccn1
T/C (dose: 12.5 mg/kg/injection, schedule: Q01DX009 (ip), vehicle: Klucel (hydroxypropylcellulose) (HPC)): 110 % of control
T/C [20]: 118 % of control
T/C [21]: 111 % of control and 114 % of control

CC1=NN(C(=O)c2ccncc2)C(=O)C1N=Nc1ccc(-c2ccc(N)cc2)cc1 (centres undefined)
T/C [4]: 97 % of control
T/C [5]: 98 % of control
T/C [6]: 96 % of control

N#Cc1ccccc1NC(=O)Nc1ccc(Cc2ccc(NC(=O)Nc3ccccc3C#N)cc2)cc1
T/C [1]: 97 % of control
T/C [2]: 97 % of control
T/C [3]: 93 % of control

O=C1CC[S][Sn][O]1
T/C [19]: 100 % of control
T/C (dose: 200.0 mg/kg/injection, schedule: Q04DX003 (ip), vehicle: saline with Tween-80): 95 % of control
T/C (dose: 400.0 mg/kg/injection, schedule: Q04DX003 (ip), vehicle: saline with Tween-80): 95 % of control

CCCCCCCC(=S)SCCCC(=O)O
T/C [21]: 100 % of control
T/C [22]: 100 % of control
T/C [23]: 99 % of control

COC(=O)C1=C(C(=O)OC)P2(c3ccccc3)(c3ccccc3)N(c3ccccc3)C(=Nc3ccccc3)N2C1(c1ccccc1)c1ccccc1
T/C [7]: 94 % of control
T/C [8]: 102 % of control and 96 % of control
T/C [9]: 100 % of control and 89 % of control

CCOC(=O)C(C#N)(CCC(=NC(C)(C)C)Nc1c(Cl)cccc1Cl)CCC(=NC(C)(C)C)Nc1c(Cl)cccc1Cl (centres undefined)
T/C [4]: 105 % of control
T/C [5]: 101 % of control
T/C [6]: 92 % of control

CC1(C)CCCC2(C)C1CCC1(C)OC(/C(C=O)=C/C=O)CC12 (centres undefined)
T/C (dose: 40.0 mg/kg/injection, schedule: Q01DX009 (ip), vehicle: Klucel (hydroxypropylcellulose) (HPC)): 112 % of control
T/C (dose: 80.0 mg/kg/injection, schedule: Q01DX009 (ip), vehicle: Klucel (hydroxypropylcellulose) (HPC)): 105 % of control

O=C1NC(c2ccccc2)(c2ccccc2)C(=O)N1CN1CCc2ccccc2C1
T/C [16]: 90 % of control
T/C [17]: 91 % of control
T/C [18]: 90 % of control

CNC(=O)N(N=O)c1[nH]c(=O)ncc1Cl
T/C [1]: 116 % of control
T/C [2]: 116 % of control

CCOC(=S)c1cccc(C(=S)OCC)c1
T/C [4]: 104 % of control
T/C [5]: 100 % of control
T/C [6]: 103 % of control

N#CC1(C#N)C2C=CC(C2)N1OC(=O)c1ccc([N+](=O)[O-])cc1 (centres undefined)
T/C [4]: 95 % of control
T/C [5]: 92 % of control
T/C [6]: 95 % of control

O=C(OCCn1ncnn1)c1ccc([N+](=O)[O-])cc1
T/C [7]: 104 % of control
T/C [8]: 104 % of control
T/C [9]: 95 % of control

CC(=O)OC1C(C)OC(OC(=O)C2CCC3C(C2)OC2(CC(OC(=O)/C=C/c4ccccc4)C(C)CO2)C32CO2)C(OC2OC(C)C(O)C(O)C2O)C1O (centres undefined)
T/C [13]: 96 % of control
T/C [14]: 102 % of control and 107 % of control
T/C [15]: 112 % of control
